Measured values taken from patent publication US20150225790A1, “METHODS FOR IDENTIFYING SUBJECTS WITH AN INCREASED LIKELIHOOD OF RESPONDING TO CCR1 ANTAGONIST” (BRISTOL-MYERS SQUIBB COMPANY, priority 2012, published 2015).

Legend:
[1] = Phase 1 trial in healthy human subjects: safety; format: in vivo
From the text: Current standard of care for the treatment of RA includes disease-modifying anti-rheumatic drugs that decrease immune activation and subsequent inflammation. However, a large proportion of patients are non-responsive to these medications, thus resulting in progression of disease symptoms. […] Further, identification of predictive biomarkers may allow for patient stratification in future clinical trials. Identification of patients most likely to respond favorably to the CCR1 antagonist may provide justification for use of a CCR1 antagonist earlier in the course of treatment, potentially preventing extensive structural damage of the joints.

[2] = tested on: PHLDA2; assay: Whole genome mRNA profiling, whole blood + RANTES: PHLDA2; format: cell-based, human; details: probe 209803_s_at; healthy volunteer whole blood, RANTES 100 nM +/- BMS-817399 1 uM
Description: (§1) Gene profiling experiments to identify genes downstream of CCR1 signaling (via CCR1 ligand stimulation) were performed. It was shown that these genes were blocked following treatment with a CCR1 antagonist. Whole blood from three healthy volunteers was treated with RANTES (100 nM, CCL5), in the presence and absence of the CCR1 antagonist (50 nM, 1 μM) for 4 and 24 hours. Following the incubation, mRNA was isolated for whole genome mRNA profiling.
(§2) Lyophilized human recombinant CCR1 ligand RANTES (Peprotech, Rocky Hill, N.J.) was reconstituted to 100 μM per the manufacturer's instructions. BMS-817399 was reconstituted to 10 mM in 100% DMSO (Sigma-Aldrich, St. Louis Mo.) and further diluted 1:50 in 10% DMSO. […] RNA quantity and quality were assessed on the ND-8000 spectrophotometer (Thermo Scientific, Wilmington, Del.) and RNA integrity was assessed on the AGILENT® 2100 Bioanalyzer using the RNA 6000 Nano Lab Chip kit (Agilent Technologies, Santa Clara, Calif.).
(§3) RNA samples with yields ≧1.5 μg and RIN (RNA integrity number) values of 6.5 and above were randomized in 96-well plates and normalized to a concentration of 250 ng/μL in preparation for microarray analysis. […] Data obtained from the microarray analysis were analyzed by statisticians internal to Bristol-Myers Squibb. […]

[3] = tested on: SPP1; assay: Whole genome mRNA profiling, whole blood + RANTES: SPP1; format: cell-based, human; details: probe 209875_s_at; healthy volunteer whole blood, RANTES 100 nM +/- BMS-817399 1 uM; 24 hours
Description: as §1, §2, §3

[4] = tested on: CLEC5A; assay: Whole genome mRNA profiling, whole blood + RANTES: CLEC5A; format: cell-based, human; details: probe 219890_at; healthy volunteer whole blood, RANTES 100 nM +/- BMS-817399 1 uM; 4 hours
Description: as §1, §2, §3

[5] = tested on: FCN1; assay: Whole genome mRNA profiling, whole blood + RANTES: FCN1; format: cell-based, human; details: probe 206237_at; healthy volunteer whole blood, RANTES 100 nM +/- BMS-817399 1 uM; 24 hours
Description: as §1, §2, §3

[6] = tested on: CLEC5A; assay: In vitro treatment of RA patient whole blood, qRT-PCR: CLEC5A; format: cell-based, human; details: 500 nM CCR1 antagonist, 3 hours
Description: (§4) FIGS. 3A-B show relative CLEC5A and MERTK expression levels in RA patient blood. Whole blood from RA patients was shipped overnight and treated with 500 nM CCR1 antagonist for 3 hours. RNA was isolated and analyzed by qRT-PCR. Expression levels are represented as mRNA levels relative to the untreated control samples as a function of treatment condition. Percent inhibition of gene expression by the investigational drug was calculated and is represented as “% change”. C-reactive protein (CRP) levels of subjects, as determined by Bioreclamation, are listed as well.
(§5) Whole blood, collected from RA patients, was stimulated with 500 nM of a CCR1 antagonist for 3 hours at 37° C. After the incubation, RNA was isolated and the gene expression levels of CLEC5A, MERTK, and the endogenous control HPRT1 were assessed by qRT-PCR for each subject. CLEC5A and MERTK mRNA levels (normalized to that of HPRT1) were calculated relative to the untreated control sample for each patient.
(§6) Whole blood, drawn in EDTA VACUTAINER® tubes from RA patients, was obtained from Bioreclamation for in vitro treatment with BMS-817399 and subsequent qRT-PCR analysis. […] Serum CRP and whole blood ESR levels of qualified subjects were also assessed by Bioreclamation. […] Data were analyzed in the SDS software for relative quantitation. […]

[7] = tested on: MERTK; assay: In vitro treatment of RA patient whole blood, qRT-PCR: MERTK; format: cell-based, human; details: 500 nM CCR1 antagonist, 3 hours
Description: as §4, §5, §6

[8] = tested on: MERTK; assay: Whole genome mRNA profiling, whole blood + RANTES: MERTK; format: cell-based, human; details: probe 206028_s_at; healthy volunteer whole blood, RANTES 100 nM +/- BMS-817399 1 uM; 4 hours
Description: as §1, §2, §3

[9] = tested on: CSPG2; assay: Whole genome mRNA profiling, whole blood + RANTES: CSPG2; format: cell-based, human; details: probe 204620_s_at; healthy volunteer whole blood, RANTES 100 nM +/- BMS-817399 1 uM
Description: as §1, §2, §3

[10] = tested on: CLEC5A; assay: Phase 1 trial, ex vivo RANTES-stimulated whole blood qRT-PCR: CLEC5A; format: in vivo, human; details: healthy volunteers, single and multiple oral doses; ex vivo 25 nM RANTES, 2 hours, 37° C.
Description: (§7) FIGS. 2A-D show relative CLEC5A and MERTK expression levels in a Phase I clinical trial. Healthy volunteers were treated with single or multiple doses of a CCR1 antagonist through oral administration at various dose levels; blood samples from subjects were treated ex vivo with CCR1 ligand RANTES. RNA was isolated and analyzed by qRT-PCR. Expression levels are represented as (negative) change in median CT (cycle threshold) value between the target (CLEC5A or MERTK) and the endogenous control (GAPDH) as a function of time.
(§8) In this study (Example 2), healthy volunteers were treated with single or multiple doses of a CCR1 antagonist through oral administration at various dose levels. Pharmacodynamic effects of the compound were assessed using an ex vivo functional assay at various times post dosing. For the assay, whole blood was collected at indicated time points following dosing with the CCR1 antagonist and stimulated ex vivo for 2 hours at 37° C. with 25 nM recombinant human RANTES. After the incubation, RNA was isolated and CLEC5A and MERTK mRNA levels, relative to the GAPDH housekeeping gene, were measured by qRT-PCR in triplicate at each time-point for each subject. The median cycle time (CT) for each gene was evaluated and changes in the CT values (ΔCT) were calculated by subtracting the median GAPDH CT value from the corresponding median values for CLEC5A CT or MERTK CT. […]

[11] = tested on: FPRL2; assay: Whole genome mRNA profiling, whole blood + RANTES: FPRL2; format: cell-based, human; details: probe 214560_at; healthy volunteer whole blood, RANTES 100 nM +/- BMS-817399 1 uM; 4 hours
Description: as §1, §2, §3

[12] = tested on: MERTK; assay: Phase 1 trial, ex vivo RANTES-stimulated whole blood qRT-PCR: MERTK; format: in vivo, human; details: healthy volunteers, single and multiple oral doses; ex vivo 25 nM RANTES, 2 hours, 37° C.
Description: as §7, §8

[13] = tested on: TLR8; assay: Whole genome mRNA profiling, whole blood + RANTES: TLR8; format: cell-based, human; details: probe 220832_at; healthy volunteer whole blood, RANTES 100 nM +/- BMS-817399 1 uM
Description: as §1, §2, §3

[14] = tested on: KYNU; assay: Whole genome mRNA profiling, whole blood + RANTES: KYNU; format: cell-based, human; details: probe 217388_s_at; healthy volunteer whole blood, RANTES 100 nM +/- BMS-817399 1 uM
Description: as §1, §2, §3

[15] = tested on: CD86; assay: Whole genome mRNA profiling, whole blood + RANTES: CD86; format: cell-based, human; details: probe 210895_s_at; healthy volunteer whole blood, RANTES 100 nM +/- BMS-817399 1 uM
Description: as §1, §2, §3

CC(C)[C@@H](NC(=O)NCC(C)(C)O)C(=O)N1CC[C@](O)(c2ccc(Cl)cc2)C(C)(C)C1 [BMS-817399]
safety profile [1]: acceptable safety profile | PHLDA2 expression, Fold Change [2]: −2.252 | PHLDA2 expression, Mean [2]: −1.171 | SPP1 (osteopontin) expression, Fold Change [3]: −6.547 | SPP1 (osteopontin) expression, Mean [3]: −2.711 | CLEC5A expression, Fold Change [4]: −5.123 | CLEC5A expression, Mean [4]: −2.357 | FCN1 (ficolin 1) expression, Fold Change [5]: −2.234 | FCN1 (ficolin 1) expression, Mean [5]: −1.16 | decrease of CLEC5A expression levels relative to the untreated control samples [6]: more than 30% | decrease of MERTK expression levels relative to the untreated control samples [7]: more than 30% | MERTK expression, Fold Change [8]: −2.417 | MERTK expression, Mean [8]: −1.274 | CSPG2 (versican) expression, Fold Change [9]: −4.39 | CSPG2 (versican) expression, Mean [9]: −2.134 | inhibition of CLEC5A gene expression in whole blood [10]: rapid and potent inhibition | FPRL2 expression, Fold Change [11]: −3.571 | FPRL2 expression, Mean [11]: −1.836 | inhibition of MERTK gene expression in whole blood [12]: rapid and potent inhibition | TLR8 expression, Fold Change [13]: −2.232 | TLR8 expression, Mean [13]: −1.158 | KYNU (kynureninase) expression, Fold Change [14]: −2.32 | KYNU (kynureninase) expression, Mean [14]: −1.214 | CD86 expression, Fold Change [15]: −2.559 | CD86 expression, Mean [15]: −1.356
